≈ marks a conversion by molar mass, not a printed value.
Legend:
[1] = tested on: P. aeruginosa ATCC 27853; assay: Susceptibility testing (MIC at 35° C.); format: cell-based; conditions: Pseudomonas aeruginosa, ATCC27853
Description: (§1) From a previous susceptibility testing experiment, the liposomal test batches and control tobramycin MIC values are shown in Table 5 below. The time-kill test is conducted using the test agents shown in bold print in Table 5: [table]

[2] = tested on: B. cepacia ATCC 25608; assay: Susceptibility testing (MIC at 35° C.); format: cell-based; conditions: Burkholderia cepacia, ATCC25608
Description: as §1

[3] = tested on: P. aeruginosa MMX 1609; assay: Susceptibility testing (MIC at 35° C.); format: cell-based; conditions: Pseudomonas aeruginosa, MMX1609
Description: as §1

[4] = tested on: P. aeruginosa MMX 1609; conditions: at 35° C.; cited from earlier work
[5] = tested on: P. aeruginosa ATCC 27853; conditions: at 35° C.; cited from earlier work
[6] = tested on: B. cepacia ATCC 25608; conditions: at 35° C.; cited from earlier work

MIC [1] [µg/mL]	MIC [2] [µg/mL]	MIC [3] [µg/mL]	Structure (SMILES)	MIC, CLSI QC range [4]	MIC, CLSI QC range [5] [µg/mL]	MIC, CLSI QC range [6]
0.5 (≈ 1.07 µM)	> 64	0.5 (≈ 1.07 µM)	NC[C@H]1O[C@H](O[C@H]2[C@H](O)[C@@H](O[C@H]3O[C@H](CO)[C@@H](O)[C@H](N)[C@H]3O)[C@H](N)C[C@@H]2N)[C@H](N)C[C@@H]1O [Free tobramycin (Sigma), tobramycin]			
			NC[C@H]1O[C@H](O[C@H]2[C@H](O)[C@@H](O[C@H]3O[C@H](CO)[C@@H](O)[C@H](N)[C@H]3O)[C@H](N)C[C@@H]2N)[C@H](N)C[C@@H]1O [tobramycin]	(0.25-1) μg/mL	0.25 to 1	(0.12-1) μg/mL

From US20110014273A1, “Method of Treating BCC” (priority 2009, published 2011)
